Results from PMC9886271 (Drug metabolism and pharmacokinetics, 2022).
Entries after “also recorded” stand apart in the source; their conditions may differ. Counter-ions that a name gives are not always drawn.

Assays:
[1] = Tissue distribution after single i.v. injection; conditions: for rank order of the extent of exposure of the organs to the parent drug: i.v. administration; for Metabolite Tissue AUC0–8h, Brain / Metabolite Tissue AUC0–8h, Heart / Metabolite Tissue AUC0–8h, Kidney / Metabolite Tissue AUC0–8h, Liver / Metabolite Tissue AUC0–8h, Lung / Metabolite Tissue AUC0–8h, Spleen: after 2.0 mg/kg i.v. of the parent drug; for rank order of the extent of exposure of the organs to the metabolite: after i.v. parent drug
[2] = tested on: human liver microsomes (HLM); conditions: HLM; for Vmax, best fit value: formation of EDDP/d6-EDDP, mean ± S.E.
[3] = tested on: mouse liver microsomes (MLM); conditions: MLM; for Vmax, best fit value: formation of EDDP/d6-EDDP, mean ± S.E.
[4] = tested on: postoperative mechanical hypersensitivity in mice; assay: Postoperative pain model; conditions: post-operative treatment, 3 mg/kg i.p., once daily for 4 days; for effect on postoperative mechanical hypersensitivity: 3 mg/kg
[5] = human, pH 7.4
[6] = male, CD-1, mouse, pH 7.4
Swiss mice = conditions: intraperitoneal (i.p.); cited from earlier work
[7] = In vivo toxicity, Up-and-Down method, single i.v. dose via tail vein; conditions: male, CD-1, mouse, iv
[8] = Plasma pharmacokinetics after single i.v. injection; conditions: for AUC0–8h (metabolite) / Cmax (metabolite) / Tmax (metabolite): metabolite in plasma after 2.0 mg/kg i.v. of the parent drug

SMILES | rank order of the extent of exposure of the organs to the parent drug [1] | Vmax, best fit value [2] | Vmax, best fit value [3] | effect on postoperative mechanical hypersensitivity [4] | Metabolite Tissue AUC0–8h, Brain [1] | Metabolite Tissue AUC0–8h, Heart [1] [ng·h/g] | Metabolite Tissue AUC0–8h, Kidney [1] [ng·h/g] | Metabolite Tissue AUC0–8h, Liver [1] [ng·h/g] | Metabolite Tissue AUC0–8h, Lung [1] [ng·h/g] | Metabolite Tissue AUC0–8h, Spleen [1] [ng·h/g] | rank order of the extent of exposure of the organs to the metabolite [1] | AUC0–8h (metabolite) [8] [ng·h/mL] | Cmax (metabolite) [8] [ng/mL] | Tmax (metabolite) [8] [min] | other results
[2H]C([2H])([2H])CC(=O)C(CC(C)N(C([2H])([2H])[2H])C([2H])([2H])[2H])(c1ccccc1)c1ccccc1 (racemic) [d9-methadone, (±)-d9-methadone] | lungs > kidneys ≈ liver > spleen > heart > brain | 438 ± 27 pmol·min^−1·mg of protein^−1 | 1033 ± 45 pmol·min^−1·mg of protein^−1 | alleviated hypersensitivity after each systemic injection; also recorded: significantly relieved postoperative mechanical hypersensitivity | – | – | – | – | – | – | – | – | – | – | deuteration effect on Vmax (HVmax/DVmax) [2]: 2.5; deuteration effect on Vmax (HVmax/DVmax) [3]: 2.5; development of analgesic tolerance [4]: no development of the apparent analgesic tolerance
CCC(=O)C(CC(C)N(C)C)(c1ccccc1)c1ccccc1 (racemic) [methadone, (±)-Methadone hydrochloride, reference compound] | kidneys ≈ lungs > spleen > liver > heart > brain | 1116 ± 17 pmol·min^−1·mg of protein^−1 | 2631 ± 121 pmol·min^−1·mg of protein^−1 | completely ineffective | – | – | – | – | – | – | – | – | – | – | Km at 20 min [5]: 82.9 ± 3.7 µM; Km at 10 min [6]: 53.5 ± 5.1 µM; effect on postoperative mechanical hypersensitivity ([4]; listed as Methadone): unable to reduce the postoperative mechanical hypersensitivity; LD50 (Swiss mice): 41 mg/kg; LD50 at 20 min [7]: 11.6 mg/kg
CC=C1N(C)C(C)CC1(c1ccccc1)c1ccccc1 (stereo not drawn) [EDDP, 2-ethylidene-1,5-dimethyl-3,3,-diphenylpyrrolidine] | – | – | – | – | 8.96 ± 5.26 ng·h/g | 2155 ± 144 | 2815 ± 226 | 5608 ± 218 | 9672 ± 856 | 622 ± 45 | lungs > liver > kidney ≈ heart > spleen | 257 ± 29 | 233 ± 28 | 8.4 ± 6 | –
[2H]C([2H])([2H])C1CC(c2ccccc2)(c2ccccc2)C(=CC)N1C([2H])([2H])[2H] (stereo not drawn) [d6-EDDP] | – | – | – | – | <LLOQ^§ | 1243 ± 254 | 1562 ± 207 | 4375 ± 513 | 9886 ± 614 | 411 ± 33 | lungs > liver > kidney ≈ heart > spleen | 138 ± 25 | 48 ± 7 | 19.8 ± 8.4 | concentration of the metabolite in the brain ([1]; after 2.0 mg/kg i.v. d9-methadone, every time point): below the lower limit of quantification; plasma AUC0–8h of d6-EDDP, fold lower than AUC0–8h of EDDP ([8]; after i.v. parent drug): 2 fold; plasma Cmax of d6-EDDP, fold lower than Cmax of EDDP ([8]; after i.v. parent drug): 5 fold
